Row | melting point | Compound
1 | 214 to 215 °C | O=C(NCC(O)C(=O)O)c1cc2cc(Cl)ccc2[nH]1 (racemic)
2 | 112 °C | COc1ccc([C@@H]2C[C@H]2CNC(=O)N(C)O)cc1 (relative stereo)
3 | 226 to 227 °C | O=C(Nc1ccncc1)c1cccc(-c2ccc3c(c2)C(Oc2ccc(Cl)cc2Cl)CC3)c1 (stereo not drawn)
4 | 194 °C | Clc1nc2ccccc2c2c(CCC3CCNCC3)n(-c3ccccc3)nc12
5 | 168 to 170 °C | CCCn1nc2c(N)nc3c(c2c1CCCc1cc(-c2cccnc2)no1)CCCC3
6 | 145 to 146 °C | COC(=O)c1ccc2occ(-c3ccc(S(C)=O)cc3)c2c1 (stereo not drawn)
7 | 96 to 97 °C | CC(C)OC(=O)Cc1nc(-c2ccc(Cl)cc2)oc1-c1ccco1
8 | 153 to 155 °C | CCOC(=O)Cc1ccc(-c2nc(COc3ccc(COc4nn(-c5ccccc5)cc4/C=C/c4csc(C)n4)cc3OC)c(C)o2)cc1
9 | 121 to 122 °C | O=[N+]([O-])c1ccccc1OCc1ccc2ccccc2n1
10 | 51.5 to 52.5 °C | N#CC(Cl)CC(Cl)(Cl)C(=O)Oc1ccccc1 (stereo not drawn)
11 | 235 to 240 °C | CC(=O)N(C)c1c(I)c(N)c(I)c(C(=O)N(C)C)c1I
12 | 45 to 46 °C | CN(C)c1ccc(CCBr)cc1
13 | 52 to 53 °C | CCc1ncc(CCCOc2c(C)cc(C#N)cc2C)s1
14 | 48 to 51 °C | CN(CCc1ccccc1)C(=O)Cc1ccc(OCc2ccccc2)c(/C=C/C(=O)O)c1
15 | 80 to 81 °C | CC(=O)NCc1ccc(CN2CCN(c3cccc(C)c3)CC2)cc1
16 | 160 to 162 °C | CC1(c2ccccc2)Cc2cc(OCC(=O)O)c(Cl)c(Cl)c2C1O (stereo not drawn)
17 | 93 to 95.5 °C | CCOc1ccc(C(Cl)=NOS(C)(=O)=O)cc1
18 | 254 to 256 °C | O=S(=O)(c1nc2c3ccccc3c3ccccc3c2[nH]1)C(F)(F)C(F)F
19 | 190 to 191 °C | Fc1ccc(Nc2nc(NC3CCOCC3)nc(OCC(F)(F)F)n2)cc1Cl
20 | 119 to 121 °C | CCCc1c(O)c(C(C)=O)cc(Cl)c1OCCCOc1c(C(C)=O)ccc(OCC(=O)O)c1CCC
21 | > 270 °C | C=CCn1c(=O)[nH]c(=O)c2[nH]c(C34CC5CC(CC3C5)C4)nc21
22 | 103 to 107 °C | Nc1cccc(OCc2ncc3ccccc3n2)c1
23 | 135 to 136 °C | O=C1NN=C(c2ccc(C(F)(F)F)cc2)CC1C(F)(F)F (stereo not drawn)
24 | 195 to 197 °C | Cc1c(NC(=O)c2ccc(-c3ccc4c(c3)CCCO4)cc2)ccc2cc(CN3CCCC3)cnc12

Row | melting point | Compound
25 | 117 to 120 °C | O=C(C=Cc1ccc(F)cc1)c1cccs1
26 | 180 to 182 °C | C#CC[C@H](c1nc2cccnc2c(=O)n1Nc1ccccc1)N(CCCN)C(=O)c1cc(F)c(F)c(F)c1F
27 | 141 to 142 °C | Fc1cccc(CSc2nnc(-c3ccnc(Nc4ccccn4)c3)o2)c1
28 | 97 to 99 °C | CC(=O)N(O)Cc1ccc(Oc2ccccn2)cc1
29 | 62 to 64 °C | CCSc1c(Cl)nc(Cl)nc1Cl
30 | 255 to 256 °C | C[C@H](Cn1ncnn1)n1cnc2cc3c(=O)n([C@H](C)Cn4ncnn4)cnc3cc2c1=O
31 | 163 to 166 °C | O=C(NCc1ccc(Cl)cc1)c1cc(Cl)c2cccnc2c1O
32 | 85 to 86 °C | CCOc1c(CO)cnc2c1c(C)nn2CC
33 | 67 to 68 °C | COc1cc(C)c(CCCCCCCCCCCCCCCCCCCCCC(=O)O)c(O)c1OC
34 | 262 to 263 °C | O=C(Cn1c(-c2ccc(Cl)cc2)nc2ncccc21)c1ccccc1
35 | 101 °C | CC[C@H](CC(=O)NC(=O)OCc1ccccc1)Nc1ccc(C(F)(F)F)cc1
36 | 115 to 116 °C | O=C(O)CCCCCCCNS(=O)(=O)c1ccc(Br)cc1
37 | 141 to 143 °C | COc1ccc2c(c1)C(=O)N(c1ccc3ccoc3c1)C2
38 | 128 to 132 °C | Cn1nnnc1CC(=O)c1ccccc1N
39 | 182 to 183 °C | CC(C)(C)OC(=O)Nc1ccc(I)cc1NC(=O)CC(=O)c1cccc(C#N)c1
40 | 111 to 112 °C | CCOC(=O)C(C#N)NC(=O)OCc1ccccc1 (stereo not drawn)
41 | 110 to 113 °C | CCN(CC)CCNS(=O)(=O)c1ccc(Nc2ncnc3ccc(Cl)cc23)cc1
42 | 132 to 134 °C | Cc1cccc2[nH]c3c(c12)CCOC3(C)CC(=O)O (stereo not drawn)
43 | 108 to 109 °C | CCCc1c(OCCCOc2ccc3c(c2CCC)OC(C(=O)O)CC3)ccc(C(C)=O)c1O (stereo not drawn)
44 | 80 to 84 °C | CC(=O)NNc1ccc(N2C(=S)SCC2(O)c2ccccc2)cc1 (stereo not drawn)
45 | 104 to 106 °C | C=CCNC(=O)C1CCc2cc(Oc3ccccc3)ccc2O1 (stereo not drawn)
46 | 88 to 90 °C | COC(=O)N(N=Nc1cc(C(F)(F)F)ccc1C#N)c1cc(C(F)(F)F)ccc1C#N
47 | 189 to 190 °C | O=C(O)COc1c(Cl)cc(Cl)cc1COc1cccc(OCc2ccc3cc(F)ccc3n2)c1
48 | 138 to 139 °C | CSCCNC(=O)c1cccc(-c2cccc3c(C)c(Cc4cccc(C(F)(F)F)c4)oc23)c1

Row | melting point | Compound
49 | 73 to 74 °C | COc1cc2c(c(OC)c1/C=C/c1ccc(COC(C)=O)cc1)C(C)(C)CCC2(C)C
50 | 110 to 111 °C | Cn1nc(Nc2cc(-c3ccc(F)c(-c4c(C(N)=O)sc5c4C(O)C(C)(C)C5)c3)nn(C)c2=O)cc1CN1CCC1 (stereo not drawn)
51 | 91 to 93 °C | CS(=O)(=O)c1ccccc1S(=O)(=O)Nc1cccc2cc(C(=O)NCCSC(c3ccccc3)(c3ccccc3)c3ccccc3)[nH]c12
52 | 218 to 220 °C | CSc1ccc(C(=O)NCc2ccc3c(c2)C(=O)N(C2(C)CCC(=O)NC2=O)C3=O)cc1 (stereo not drawn)
53 | 250 to 252 °C | Cc1n[nH]c2c1CCc1[nH]ncc1-2
54 | 190 to 193 °C | Cn1cc(C2c3ccc(Cl)cc3C=Cc3sc(OCCn4ccnc4)nc32)c(=S)[nH]c1=O (stereo not drawn)
55 | 136 to 138 °C | COc1ccc(Oc2ccc(C(C)=C3SCCCS3=O)cc2)cc1 (stereo not drawn)
56 | 134 to 135 °C | O=Cc1oc(-c2ccccc2)nc1CO
57 | 230 °C | O=c1[nH][nH]c(=S)n(CCO)c1=O
58 | 233 to 235 °C | CCOC(=O)c1ccc(-c2cc(-c3ccc4c(c3)C(C)(C)CCC4(C)C)ccc2-c2ccccc2)cc1
59 | 250 to 252 °C | CCOC(=O)c1nnc2ccc(C(C)=O)cc2c1O
60 | 160 to 162 °C | CCOCc1nc2c(N)nc3ccccc3c2n1CCCCCC(=O)N1CCOCC1
61 | 145 to 147 °C | COC(=O)c1cnc(CO)n1C
62 | 156 to 158 °C | COC(=O)C1=C(CCc2ccccc2OC)NC(CC(=O)N2CCN(CCCN(C)C)CC2)=C(C(=O)OC)C1c1c(Cl)cccc1Cl (stereo not drawn)
63 | 223 to 225 °C | Cc1ccc(Cn2nnc(C(N)=O)c2N)cc1
64 | 145 to 146 °C | CCOC(=O)C=Cc1ccc(Oc2ccc([N+](=O)[O-])cc2)c(Cl)c1Cl
65 | 156 °C | Clc1cc(Cl)cc(-c2cc[nH]n2)c1
66 | 68 °C | CC1=CC(COC(c2ccccc2)(c2ccccc2)c2ccccc2)O[C@@H]1c1coc(C#N)c1N (stereo partly drawn)
67 | 238 °C | O=C(Nc1cccc(S(=O)(=O)NCCc2ccncc2)c1)c1cnn2c(C(F)F)cc(-c3ccc(C(F)(F)F)cc3)nc12
68 | 140 to 142 °C | CCOCn1cc(F)c(=O)n(C(=O)c2cccc(C(=O)Oc3nc(OC(=O)c4ccc(Cl)cc4Cl)ccc3C#N)c2)c1=O
69 | 124 °C | c1ccc(C2NCCc3ccccc32)nc1 (racemic)
70 | 189 to 190 °C | N#CCCNC(=O)c1cccc(-c2ccc3c(c2)N(c2cc(Cl)ccc2Cl)CC3)c1
71 | 64 to 72 °C | O=C(c1ccccc1)N1CCSc2cccc(Cl)c2C1
72 | 190 °C | Cc1cccc(-c2n[nH]cc2-c2ccnc(-c3ccc(Cl)cc3)c2)n1

Row | melting point | Compound
73 | > 250 °C | NCC1Cc2cc(-c3ccc(C(F)(F)F)cc3)cc(F)c2O1 (stereo not drawn)
74 | 206 to 208 °C | FC(F)(F)c1cc2[nH]c(N3CCN(c4ncccc4C(F)(F)F)CC3)nc2cc1Cl
75 | 100 to 102 °C | O=C(O)CCC[C@@H](O)[C@@H](CCc1ccccc1)S(=O)(=O)c1ccccc1 (relative stereo)
76 | 108 to 111 °C | CNc1cc(Cl)c(CO)c(Cl)c1
77 | 101 to 103 °C | CC(C(=O)O)c1ccc(C(C)(C)C)cc1 (stereo not drawn)
78 | 219 to 223 °C | O=C(Oc1cc(F)ccc1[N+](=O)[O-])c1cc2ccccc2oc1=O
79 | 43 to 44 °C | CC(C)[C@H]1CC[C@H](C(=O)CO)CC1
80 | 94 to 95 °C | C/C(=C\C=O)c1ccc(OCc2nc(-c3ccccc3)oc2C)cc1
81 | 159 to 160 °C | Cc1c(C)n(CC2CC2)c2c(CCc3ccc(F)cc3F)nncc12
82 | 120 °C | CC(C)(C)OC(=O)N1C(=O)C(Br)=C(c2cn(C(=O)OC(C)(C)C)c3cc(OCc4ccccc4)ccc23)C1=O
83 | 119 °C | CS(=O)(=O)Nc1cc2c(cc1Oc1ccc(F)cc1F)C(O)CC2 (stereo not drawn)
84 | 136 to 138 °C | CS(=O)(=O)NCCn1c(CCO)nc2c(N)nc3cccnc3c21
85 | 97 to 98 °C | C#Cc1c(Cl)cccc1Cl
86 | 136 to 138 °C | COC(=O)c1ccc(Cc2c[nH]c3ccc(C(=O)OC)cc23)c(OC)c1
87 | 173 to 175 °C | Cc1sc(N2C(=O)c3ccccc3C2=O)c(C(=O)c2ccc(Cl)cc2)c1CBr
88 | 134 °C | O=S1(=O)c2cccc3cccc(c23)N1CCN1CCC(CC2CNc3ccccc3C2)CC1 (stereo not drawn)
89 | 126 to 127 °C | CCCc1c(OCCCCCc2ccc(O)c(O)c2)ccc(C(C)=O)c1O
90 | 202 °C | CCOC(=O)Cc1c(C(=O)O)c2cc(Oc3ccc(C(F)(F)F)cn3)ccc2n1-c1ccc(OC(C)C)cc1
91 | 163 to 166 °C | COc1cc(N2CCN(C[C@H](C)O)CC2)ccc1Nc1ncc2ccc(-c3cc(Cl)ccc3OC)n2n1
92 | 166 to 168 °C | COc1ccc(C=CC2=NNC(C)Cc3cc4c(cc32)OCO4)cc1OC (stereo not drawn)
93 | 177 to 178 °C | O=C(CSc1n[nH]c(-c2ccco2)n1)C12CC3CC(CC(C3)C1)C2
94 | 172 to 173 °C | CC(C)(C)c1cc(OCC(=O)O)cc(C(C)(C)C)c1O
95 | 211 to 212 °C | CC(C)(C)c1ccc(Sc2ccc(C=C3SC(=S)NC3=O)cc2)cc1

Row | Compound | melting point
96 | CC1(C)CCC(C)(C)c2cc(-c3cc(I)ccc3-c3ccccc3)ccc21 | 120 to 122 °C
97 | COC(=O)c1cc([N+](=O)[O-])c(C(F)(F)F)cc1NC(C)=O | 75 to 80 °C
98 | C[C@](O)(COc1ccc(Cl)c(F)c1)C(=O)Nc1ccc(C#N)c(C(F)(F)F)c1 | 132 to 134 °C

Reference: a melting point compilation (Tetko et al.; mined from patent text by program, amines drawn as free bases though some values may be those of a salt)
